The term Ki denotes the equilibrium dissociation constant of an inhibitor or competing ligand from its target. High values mean lower affinity, low ones higher affinity. By stoichiometry N is commonly meant a count of units in the complex or per binding partner.

This is an account of results in article PMC9223267, “Serine hydroxymethyltransferase as a potential target of antibacterial agents acting synergistically with one-carbon metabolism-related inhibitors” (Communications Biology, 2022).

In one data set the test system is E. faecalis. The data set can be described thus: Antibacterial activity evaluation (turbidity, OD600). Type of data set: cell-based, Enterococcus faecalis (JCM7783). Conditions: E. faecalis JCM7783. The gist of the method:
(§1)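 Inocula set to 1.0 McFarland (enterococci) or 0.5 McFarland (S. aureus, E. coli), then diluted 1:200 in Mueller–Hinton broth. Growth read as OD600; EC50 given with standard error.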

Data set [1] relates to efmSHMT. Type of data set: binding, Enterococcus faecium. Conditions: DSF; final drug concentration 50 μM. The protocol:
Protein samples were prepared as 20 μL aliquots containing 0.1 mg/mL protein (efmSHMT/ecSHMT), 1 μL of the ligand in DMSO (final drug concentration, 50 μM) and 2% or 4% SYPRO Orange (Invitrogen, MA, USA). […] Melting points were evaluated as the half-point of the maximum intensity of each curve.

The subject of data set [2] is E. faecium. The experiment in a line: Antibacterial activity evaluation (turbidity, OD600). Type of data set: cell-based, Enterococcus faecium (JCM5804). The note with it: for 50% effective concentration (EC50): growth of E. faecium. The procedure, abridged: as §1
Another data set concerns the target T1, ecSHMT (Escherichia coli, UniProt P0A825).
T1 construct: His tag (followed by PreScission protease cleavage site) (N, cleaved yes); made in house; host or cells: E. coli BL21(DE3)
The data set can be described thus: Thermal stability analysis using differential scanning fluorimetry (DSF). Type of data set: binding, E. coli. The note with it: final drug concentration 50 μM. The protocol: Protein samples were prepared as 20 μL aliquots containing 0.1 mg/mL protein (efmSHMT/ecSHMT), 1 μL of the ligand in DMSO (final drug concentration, 50 μM) and 2% or 4% SYPRO Orange (Invitrogen, MA, USA). Measurements were taken using StepOnePlus real-time PCR (Thermo Fisher Scientific) (temperature increment, 1.8%; range, 20–95 °C). Melting points were evaluated as the half-point of the maximum intensity of each curve.
On the technique in general: Differential scanning fluorimetry follows unfolding on heating by fluorescence.

A further data set concerns S. aureus. The experiment in a line: Antibacterial activity evaluation (turbidity, OD600). Type of data set: cell-based, Staphylococcus aureus (ATCC29213). The note with it: S. aureus ATCC29213. The gist of the method: as §1
The target in data set [3] is efmSHMT (Enterococcus faecium, UniProt I3U4H4, M1V). The data set can be described thus: biochemical. Format: binding. The protocol: After adding Me-THF, the efmSHMT solution was incubated for 30 min at room temperature. The optical density at 500 and 600 nm (OD500 and OD600) were then measured using a nanodrop spectrophotometer[24],[25]. OD600 was used as the background. After detection, each concentration of inhibitor was added to the efmSHMT solution and incubated for 30 min at room temperature. OD500 and OD600 were measured. The relative OD500 intensity was calculated as relative OD500 = (OD500 – OD600)/(MAXOD500 – OD600), where MAXOD500 is the average OD500 value in the presence of 1000, 2000 and 4000 μM Me-THF without inhibitors. […] Here, IC50 is the concentration of inhibitor added to the efmSHMT solution and [Me-THF] is the EC50 in the presence of the inhibitor concentration. [EC50 without inhibitor] is the EC50 of Me-THF in the absence of the inhibitor.

The next data set has as its system E. coli. The experiment in a line: Antibacterial activity evaluation (turbidity, OD600). Type of data set: cell-based, Escherichia coli (ATCC25922). The note with it: E. coli ATCC25922. The gist of the method:
as §1

Data set [4] relates to E. faecium. The data set can be described thus: Antibacterial assay with an excess concentration of biomolecules (Ser, Gly, inosine, dT, FA). Type of data set: cell-based, Enterococcus faecium (JCM5804).
Data set [5] relates to E. faecium. The experiment in a line: Bacterial viability assay (Microbial Viability Assay Kit-WST, OD450). The note with it: for EC50: Enterococcus faecium. Format: cell-based, Enterococcus faecium. The protocol:
Living E. faecium were determined using the Microbial Viability Assay Kit-WST (DOJINDO, Tokyo, Japan). […] Positive control wells included bacteria seeded into MH broth without compounds, and the negative control wells contained MH broth only. […] Five microlitres of the colouring reagent were added to each well of the 96-well plate every 2 h after starting incubation with each compound.

The conditions of data set [6]: cited from earlier work.
Data set [7] concerns the molecule itself. The experiment in a line: dynamic light scattering; 25 °C, Zetasizer NanoS, efmSHMT at 0.5 mg/mL, in triplicate; hydrodynamic radius 4.209 nm.

Like-named read-outs stand apart in the source and are kept apart here.

Sequence of efmSHMT (Enterococcus faecium, UniProt I3U4H4, M1V) (I3U4H4 whole entry M1V): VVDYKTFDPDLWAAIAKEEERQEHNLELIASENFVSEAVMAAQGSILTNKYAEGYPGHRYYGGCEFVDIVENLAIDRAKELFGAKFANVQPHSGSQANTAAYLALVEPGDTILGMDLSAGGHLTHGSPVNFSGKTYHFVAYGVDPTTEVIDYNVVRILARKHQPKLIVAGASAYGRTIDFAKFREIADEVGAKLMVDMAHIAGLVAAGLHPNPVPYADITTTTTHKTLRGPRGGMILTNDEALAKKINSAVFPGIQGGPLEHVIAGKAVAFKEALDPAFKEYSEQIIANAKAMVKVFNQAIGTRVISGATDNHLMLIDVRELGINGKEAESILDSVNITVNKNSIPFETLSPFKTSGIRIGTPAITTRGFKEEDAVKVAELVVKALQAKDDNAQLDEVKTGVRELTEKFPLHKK
T1 sequence (P0A825 whole entry): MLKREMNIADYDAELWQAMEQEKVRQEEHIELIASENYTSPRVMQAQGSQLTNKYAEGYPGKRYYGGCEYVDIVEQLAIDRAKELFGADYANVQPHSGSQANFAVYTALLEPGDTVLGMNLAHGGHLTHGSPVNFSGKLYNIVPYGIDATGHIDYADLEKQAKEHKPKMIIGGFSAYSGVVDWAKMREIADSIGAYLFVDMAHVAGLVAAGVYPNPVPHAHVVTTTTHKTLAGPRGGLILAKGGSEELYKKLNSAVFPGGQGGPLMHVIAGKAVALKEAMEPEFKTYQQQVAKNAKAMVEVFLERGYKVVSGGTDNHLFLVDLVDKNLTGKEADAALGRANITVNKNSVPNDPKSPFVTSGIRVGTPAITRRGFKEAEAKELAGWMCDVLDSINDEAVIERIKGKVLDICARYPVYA

`Cc1n[nH]c2c1[C@](c1cc(CO)cc(-c3ccccc3)c1)(C(C)C)C(C#N)=C(N)O2` [(+)-SHIN-1]: the EC50 was over 2000 nM in the data set on E. faecalis (Enterococcus faecalis, read-out: EC50); over 2000 nM in the data set with E. faecalis (Enterococcus faecalis, read-out: pEC50 ± S.E. (converted)); 0.01 nM in the data set on E. faecium [2] (Enterococcus faecium, read-out: 50% effective concentration (EC50), growth of E. faecium, order of magnitude given); 0.031 nM in the data set on E. faecium [2] (Enterococcus faecium, E. faecium JCM5804, read-out: EC50); 0.0316 nM in the data set with E. faecium [2] (Enterococcus faecium, E. faecium JCM5804, read-out: pEC50 ± S.E. (converted)); 0.044 ± 0.028 nM in the data set on E. faecium [2] (Enterococcus faecium, E. faecium, value of the response letter (earlier manuscript version), read-out: EC50 (turbidity)). Also, the EC50 in the data set on S. aureus (Staphylococcus aureus, read-out: EC50) is over 2000 nM; with S. aureus (Staphylococcus aureus, read-out: pEC50 ± S.E. (converted)), over 2000 nM; in the data set with E. coli (Escherichia coli, read-out: EC50) it was over 2000 nM; with E. coli (Escherichia coli, read-out: pEC50 ± S.E. (converted)), over 2000 nM; in the data set with E. faecium [4] (Enterococcus faecium, JCM5804, E. faecium JCM5804, 1 mM Inosine, read-out: EC50), 0.36 nM; in the data set on E. faecium [4] (Enterococcus faecium, JCM5804, E. faecium JCM5804, 1 mM Inosine, read-out: pEC50 ± S.E. (converted)), 0.398 nM. Besides, the EC50 was over 2000 nM in the data set with E. faecium [4] (Enterococcus faecium, JCM5804, E. faecium JCM5804, 1 mM deoxythymidine, read-out: EC50); over 2000 nM with E. faecium [4] (Enterococcus faecium, JCM5804, E. faecium JCM5804, 1 mM deoxythymidine, read-out: pEC50 ± S.E. (converted)); 0.12 nM in the data set with E. faecium [4] (Enterococcus faecium, JCM5804, E. faecium JCM5804, 10 mM Glycine, read-out: EC50); 0.126 nM in the data set on E. faecium [4] (Enterococcus faecium, JCM5804, E. faecium JCM5804, 10 mM Glycine, read-out: pEC50 ± S.E. (converted)); 0.43 nM in the data set with E. faecium [4] (Enterococcus faecium, JCM5804, E. faecium JCM5804, 100 mM Serine, read-out: EC50); 0.398 nM with E. faecium [4] (Enterococcus faecium, JCM5804, E. faecium JCM5804, 100 mM Serine, read-out: pEC50 ± S.E. (converted)). For the same molecule, the EC50 with E. faecium [4] (Enterococcus faecium, JCM5804, E. faecium JCM5804, 0.1 M folate, read-out: EC50) was over 2000 nM; with E. faecium [4] (Enterococcus faecium, JCM5804, E. faecium JCM5804, 0.1 M folate, read-out: pEC50 ± S.E. (converted)), over 2000 nM; in the data set with E. faecium [5] (relative bacterial viability after 14 h incubation), 0.23 nM; with E. faecium [5] (value of the response letter (earlier manuscript version)), 0.21 ± 0.13 nM. Further, the “ΔTm (thermal stability of efmSHMT)” value with efmSHMT [1] was determined as 7 °C. For the same molecule, in the data set on E. faecium [2] (order of magnitude given), the “50% effective concentration (EC50)” value is reported as 10^–10 to 10^–11 M. Moreover, the “binding to ecSHMT (DSF)” value at ecSHMT is “bound to ecSHMT”. Also, the Ki is 8.8 nM at efmSHMT [3] (Ki, 2.5 μM efmSHMT, 10 mM Gly and 100 μM Ser, Cheng-Prusoff); 28 nM at efmSHMT [3] (Ki, 5 μM efmSHMT, 10 mM Gly and 100 μM Ser, Cheng-Prusoff); under 8.8 nM at efmSHMT [3] (actual Ki (bound, as the assay's efmSHMT detection limit is 2.5 μM), efmSHMT); 7.94 nM on efmSHMT [3] (pKi ± pSE, 2.5 μM efmSHMT, 10 mM Gly and 100 μM Ser); 25.1 nM at efmSHMT [3] (pKi ± pSE, 5 μM efmSHMT, 10 mM Gly and 100 μM Ser). Besides, in the data set with E. faecium [5], the “mode of antibacterial action (time-dependent bacterial viability)” value is “bacteriostatically”.

Turning to `Cc1[nH]nc2c1C(c1cc(CO)cc(-c3ccccc3)c1)(C(C)C)C(C#N)=C(N)O2` (centres unmarked) [SHIN-1], the “pEC50 ± S.E.” value is reported as under 5.7 in the data set with E. faecalis; 9.3 ± 0.1 in the data set on E. faecium [2] (E. faecium JCM5804); under 5.7 in the data set on S. aureus; under 5.7 in the data set on E. coli; 8.3 ± 0.3 with E. faecium [4] (E. faecium JCM5804, 1 mM Inosine); under 5.7 with E. faecium [4] (E. faecium JCM5804, 1 mM deoxythymidine). Further, the “pEC50 ± S.E.” value was 8.9 ± 0.0 with E. faecium [4] (E. faecium JCM5804, 10 mM Glycine); 8.5 ± 0.1 with E. faecium [4] (E. faecium JCM5804, 100 mM Serine); under 5.7 in the data set with E. faecium [4] (E. faecium JCM5804, 0.1 M folate). The EC50 in the data set with E. faecalis (read-out: EC50) was over 2000 nM; with E. faecium [2] (E. faecium JCM5804, read-out: EC50) it was 0.5 nM; in the data set with S. aureus (read-out: EC50) it was over 2000 nM; in the data set on E. coli (read-out: EC50), over 2000 nM; with E. faecium [4] (E. faecium JCM5804, 1 mM Inosine, read-out: EC50), 5.2 nM; in the data set on E. faecium [4] (E. faecium JCM5804, 1 mM deoxythymidine, read-out: EC50), over 2000 nM. The EC50 with E. faecium [4] (E. faecium JCM5804, 10 mM Glycine, read-out: EC50) was 1.2 nM; in the data set on E. faecium [4] (E. faecium JCM5804, 100 mM Serine, read-out: EC50), 3.4 nM; in the data set on E. faecium [4] (E. faecium JCM5804, 0.1 M folate, read-out: EC50), over 2000 nM. Also, the pharmacokinetic properties result in [6] is reported as “lacked pharmacokinetic properties suitable”. Besides, the half-life entry in [6] (response letter, ref (6) García-Cañaveras et al. 2021) was “too short to use in vivo”. Moreover, the “50% effective concentration (EC50)” value with E. faecium [2] (order of magnitude given) is given as 10^–10 to 10^–11 M.

B1: Enterococcus faecium serine hydroxymethyltransferase (enzyme)
chain: VDYKTFDPDLWAAIAKEEERQEHNLELIASENFVSEAVMAAQGSILTNKYAEGYPGHRYYGGCEFVDIVENLAIDRAKELFGAKFANVQPHSGSQANTAAYLALVEPGDTILGMDLSAGGHLTHGSPVNFSGKTYHFVAYGVDPTTEVIDYNVVRILARKHQPKLIVAGASAYGRTIDFAKFREIADEVGAKLMVDMAHIAGLVAAGLHPNPVPYADITTTTTHKTLRGPRGGMILTNDEALAKKINSAVFPGIQGGPLEHVIAGKAVAFKEALDPAFKEYSEQIIANAKAMVKVFNQAIGTRVISGATDNHLMLIDVRELGINGKEAESILDSVNITVNKNSIPFETLSPFKTSGIRIGTPAITTRGFKEEDAVKVAELVVKALQAKDDNAQLDEVKTGVRELTEKFPLHKK
modifications: pyridoxal 5'-phosphate (PLP) covalently linked as a Schiff's base to K226 (in the efmSHMT/(+)-SHIN-1 structure; relocated to Ser or Gly in the ternary complexes)
notes: theoretical monomer molecular weight 44.7 kDa; A few vector residues may remain at the N-terminus after PreScission cleavage; also called efmSHMT; E. faecium SHMT; source: E. coli BL21(DE3), purified (HisTrap, PreScission digestion, HiTrap Q, Superdex 75); not shown: His tag, N-terminal, cleaved
In the case of B1, the “stoichiometry N” value in data set [7] was 2.
